Reference: ChEMBL document CHEMBL1121510, “Resolution, absolute configuration, and antiarrhythmic properties of the enantiomers of disopyramide, 4-(diisopropylamino)-2-(2-pyridyl)-2-phenylbutyramide” (1980)

Assays:
Oryctolagus cuniculus [1] = species: Oryctolagus cuniculus; assay: Antiarrhythmic activity expressed as change in effective refractory period (DeltaERP) induced in rabbit ventricle by the Enantiomeric Disopyramide Bitartrates at a concentration of 1.5x10E-5M.; format: functional, Heart
Oryctolagus cuniculus [2] = species: Oryctolagus cuniculus; assay: Antiarrhythmic activity expressed as change in effective refractory period (DeltaERP) induced in rabbit ventricle by the Enantiomeric Disopyramide Bitartrates at a concentration of 3.0x10E-6M; format: functional, Heart

CC(C)N(CC[C@](C(N)=O)(c1ccccc1)c1ccccn1)C(C)C [(S)-DISOPYRAMIDE]
Delta ERP (Oryctolagus cuniculus [1]): 41.2 ms
Delta ERP (Oryctolagus cuniculus [2]): 21.8 ms

CC(C)N(CC[C@@](C(N)=O)(c1ccccc1)c1ccccn1)C(C)C [DISOPIRAMIDE]
Delta ERP (Oryctolagus cuniculus [1]): 50.5 ms
Delta ERP (Oryctolagus cuniculus [2]): 25.8 ms
